Source: ChEMBL document CHEMBL3638965, “Chemical compounds 542” (2015)

Target: DNA gyrase (Escherichia coli, UniProt P0AES4+P0AES6)
Assay: Fluorescence Polarisation Assay: In a black, 384-well polystyrene assay plate, 30 microliters/well of 5 nM Escherichia coli DNA gyrase A/B tetramer and 130 micrograms/ml of topologically relaxed plasmid containing the triplex-forming sequence […] in an assay buffer consisting of 35 mM Tris-HCl (pH 7.5), 24 mM KCl, 4 mM MgCl2, 2 mM dithiothreitol, 1.8 mM spermidine, 5% (v/v) glycerol, 200 nM bovine serum albumin, 0.8% dimethylsulfoxide, and 0.3 mM ATP may be incubated at ambient temperature for (typically 30 minutes) in the absence or presence of 5-10 different concentrations of test compound. The supercoiling reactions may be quenched by the addition of 10 microliters/well of 40 nM oligodeoxynucleotide probe in 3x triplex-forming buffer consisting of 150 mM NaCl, and 150 mM sodium acetate at pH 3.5. The oligodeoxynucleotide probe may be 5x-BODIPY-FL-labeled […]. After 60 minutes, the fluorescence anisotropy of the BODIPY-FL may be measured in a Tecan Ultra plate reader, using 485 nM.
Format: protein-complex assay

| Structure (SMILES) | IC50 |
| --- | --- |
| C[C@@H]1CN2c3c(cc4c(Cl)noc4c3F)CC3(C(=O)NC(=O)NC3=O)[C@H]2[C@H](C)O1 | 200 nM |
| Cc1noc2c(Cl)c3c(nc12)CC1(C(=O)NC(=O)NC1=O)[C@H]1[C@H](C)O[C@H](C)CN31 (relative stereo) | 1800 nM |
| C[C@@H]1CN2c3c(cc4c(C(N)=O)noc4c3F)CC3(C(=O)NC(=O)NC3=O)[C@H]2[C@H](C)O1 (relative stereo) | 1700 nM |
